# Entries after “also recorded” stand apart in the source; their conditions may differ.
# Tests used:
# [1] = test system: Twenty-month-old male C57/Bl6 mice; assay: Hindlimb immobilization (casting, 21 days) disuse atrophy in aged mice, muscle wet weight; type: in vivo, mouse; details: 50 mg/kg BID P.O.; 21 days immobilization (placebo group 25%)
# Text: Limb immobilization causes a loss of gross skeletal muscle mass accompanied by a significant decrease in apelin transcript levels.
# One week into the treatment, mice underwent modified hindlimb casting on one limb. Mice were anesthetized with isoflurane inhalation and the hindlimb wiped with povidone-iodine, then ethanol, and loosely wrapped in surgical gauze. A custom-made plastic immobilization device was placed on the limb, with the foot in full extension, so as to result in the maximal in vivo unloading of the plantarflexor group. The device was fixed to the hindlimb using Vetbond and the animal returned to its cage. After 3 weeks of treatment following casting, mice were euthanized 1 hour after the final ZT1 dose, and tissues isolated, weighed, then flash frozen in liquid nitrogen for subsequent western blot analysis.
# healthy adult subjects = assay: Phase 1 study Part A (SAD), safety and tolerability; type: in vivo, human; details: SAD cohorts
# Experimental: Safety data is summarized using descriptive statistics (number of subjects, mean, median, standard deviation, minimum, and maximum) for continuous variables and using frequency and percentages for discrete variables.
# (§1) Adverse events are coded using the Medical Dictionary for Regulatory Activities. The number of events, incidence, and percentage of TEAEs are calculated overall by system organ class, preferred term, and treatment group for each cohort and treatment group. The number and percentage of subjects with TEAEs are further summarized by severity and relationship to study drug. AEs related to study drug, AEs leading to withdrawal, SAEs, and deaths are also similarly summarized and/or listed in a similar manner.
# [2] = test system: healthy volunteers aged ≥65 years; assay: Phase 1b bed rest study, muscle protein synthesis rate (heavy water, vastus lateralis microbiopsy); type: in vivo, human
# Experimental: Heavy Water Consumption and Assessments. For subjects in Part B only, heavy water, deuterated H2O (D2O), is provided to subjects to drink during the pre-treatment and treatment periods before breakfast, in the afternoon, and after fasting overnight, at timepoints described previously. Blood samples (10 mL) and urine samples are collected at timepoints described previously to assess skeletal muscle protein fractional synthetic rate (FSR).
# Skeletal muscle protein synthesis rate (%/time) for individual muscle proteins are compared first as a linear contrast including all doses versus placebo and then as individual dose comparisons to placebo.
# One day before (baseline, D-1) and 5 (D5) and 10 (D10) days after initiation of bed rest, key muscle atrophy endpoints were measured: thigh circumference; cross-sectional area (CSA) and A-P diameter of vastus lateralis (ultrasound); ultrasound muscle quality grade, an index that quantifies fatty degeneration in muscle (ultrasound echo density); and muscle protein synthesis rate (biopsy). Parameters measured during the 10-day bed rest period include thigh circumference, muscle size, muscle quality (e.g., fatty degeneration), and muscle protein synthetic rate.
# [3] = test system: healthy volunteers aged ≥65 years; assay: Phase 1b bed rest study, safety (TEAEs); type: in vivo
# Experimental: as §1
# [4] = test system: fast and slow skeletal muscle; assay: snRNAseq of vastus lateralis muscle biopsies from Phase 1b study; type: in vivo, human
# Text: FIG. 40 illustrates nuclei isolation for 10× Genomics single cell transcriptome gene expression technology used to assess tissue samples. […] Tissue samples were collected from patients and processed in a laboratory. Tissues were dissociated and cleaned up. The debris were removed and the sample (e.g., nuclei) was washed, resuspended for multiple cycles according to routine tissue processing procedures. Cell nuclei were visualized and counted using standard transcriptome gene expression technologies 10× Genomics single cell library technology is used for assessing tissue samples.
# Cell type clustered include fast skeletal muscle, slow skeletal muscle (type 1), myofibroblast, tenocytes, fibroblasts, muscle stem cells, pericytes, smooth muscle, endothelial cells, T/NK cells, and adipocytes. Two methods and two annotations were used.
compound,measurement,setting,value
"COc1cccc(OC)c1-n1c(NS(=O)(=O)[C@@H](C)[C@H](C)c2ncc(C)cn2)nnc1-c1cncc(C)c1 [BGE-105, (2S,3R)—N-(4-(2,6-dimethoxyphenyl)-5-(5-methyl-3-pyridinyl)-4H-1,2,4-triazol-3-yl)-3-(5-methyl-2-pyrimidinyl)-2-butanesulfonamide]",decrease of wet weight of tibialis anterior (TA) muscle in casted limb,[1],3%
same,serious adverse events,healthy adult subjects,no serious adverse events
same,tolerability,healthy adult subjects; all doses including 240 mg/1440 mg,well tolerated
same,"mean normalized fraction synthetic rate, range","[2]; BGE-105 treated patients with elevated rate, 10 days bed rest",0.18-2.2
same,number of patients (out of 11) with elevated rate of muscle protein synthesis,[2]; after 10 days of bed rest,8
same,decrease in the synthetic rate of muscle myofibril proteins (FSR/day) from baseline,[2]; vastus lateralis (placebo 58%),36%
same,number of volunteers (out of 11) exhibiting TEAEs,[3]; Cohort 1B,7
same,percent of volunteers exhibiting TEAEs,[3]; Cohort 1B,64%
same,serious / severe adverse effects,[3]; Phase 1b bed rest study,no serious adverse effects; also recorded: no severe adverse effects
same,tolerability,[3]; Phase 1b bed rest study,well tolerated
same,number of muscle proteins (out of 18) statistically highly expressed in fast skeletal muscle,[4]; treated compared to placebo,15
same,"differentially expressed genes associated with treatment, fast skeletal muscle",[4]; vastus lateralis biopsies,3418
same,"differentially expressed genes associated with treatment, slow skeletal muscle (Type 1)",[4]; vastus lateralis biopsies,1571
